Experimental data taken from patent publication US20190359653A1, “SELECTIVE PEPTIDE INHIBITORS OF FRIZZLED” (Genentech, Inc., priority 2016, published 2019).
Read-outs that look alike come from different tables or passages of the source.

What was measured:
FZD7 CRD-Fc = target: T1, FZD7 CRD-Fc (Homo sapiens, UniProt O75084); test: spot phage ELISA against FZD7 CRD-Fc; format: binding; details: for FZD7 CRD-Fc phage-binding signal: signal minus noise (BSA); for FZD7 CRD-Fc phage-binding signal / FZD7 CRD-Fc S/N: shotgun scanning variants of Fz7-21, Table 5; for FZD7 CRD-Fc S/N: signal to noise ratio; for SIGNAL: NOISE RATIO FZD7 CRD: spot phage ELISA signal against FZD7 CRD over ELISA signal against BSA, Tables 3 and 4
T1 construct: hFZD7 CRD-Fc (cat no. 6178-FZ); purchased R&D systems 6178-FZ
Protocol: (§1) Phage pools of linear peptide libraries (Stanger, K. et al. Allosteric peptides bind a caspase zymogen and mediate caspase tetramerization. Nat Chem Biol 8, 655-660 (2012)) were cycled through rounds of binding selections with hFZD7 CRD-Fc following standard protocols (Tonikian et al. (2007) Nat Protoc 2, 1368-1386). Herceptin (10 μM) was included in sorting solution to block potential Fc binders during all rounds of sorting. After four rounds of binding selection, individual phage clones were analyzed in a high-throughput spot phage ELISA using plate-immobilized FZD7 CRD-Fc as target or off-target for specificity test (hFZD8 CRD-Fc and Herceptin). To measure off-target affinity, duplicate phage particle were assayed against BSA to measure non-specific binding. Clones with a phage-binding signal >0.5 and signal-to-noise ratio >10 were considered to be positive clones and were subjected to DNA sequence analysis. General data handling was done using Microsoft Excel 2010 unless otherwise noted.
(§2) In order to investigate the role of FZD7 in intestinal stem cell function, experiments were performed to identify ligands that selectively bind FZD7 CRD. A naïve linear peptide library (4-16 amino acids in length) and a cyclic peptide library were screened via phage display against FZD7 CRD-Fc. Peptides found to bind FZD7 CRD-Fc were then screened via spot phage ELISA against FZD7 CRD-Fc, FZD8 CRD-Fc, and Herceptin to identify candidates that bind FZD7 CRD but not FZD8 CRD or herceptin. The amino acid sequences of candidate FZD7 CRD-binding linear peptides are shown in Table 3 below, and the amino acid sequences of candidate FZD7 CRD-binding cyclic peptides are shown in Table 4.
(§3) Briefly, sixty Fz7-21-derived peptides (see Table 5), each containing at least one random alanine and/or valine/and/or aspartic acid and/or serine substitution, were generated and screened via spot phage ELISA (i.e., as described above) against FZD7 CRD-Fc and Herceptin.

Herceptin = test: spot phage ELISA against Herceptin (off-target); format: binding; details: for HERCEPTIN S/W: signal minus noise (BSA); for HERCEPTIN S/W / HERCEPTIN S/N: Table 5; for HERCEPTIN S/N: signal to noise ratio; for SIGNAL: NOISE RATIO HERCEPTIN: spot phage ELISA signal against Herceptin over ELISA signal against BSA, Tables 3 and 4
Protocol: as §1, §2, §3

[1] = tested on: Rnf43^−/− and Znf3^−/− intestinal neoplasia in mice; details: Koo et al. (2015); cited from earlier work
[2] = tested on: Wnt3a-mediated β-catenin signaling in HEK293-TB cells; format: cell-based; details: for HEK293S-TB % Remaining Activity: measured at 100 μM peptide
[3] = tested on: Wnt3a-mediated stabilization of β-catenin in mouse L cells; test: in-cell western of β-catenin protein in L cells treated with Wnt3a; format: cell-based
Protocol: DMSO controls were performed in parallel. Following treatment, the L-cells were fixed, permeabilized, probed with fluorescently labeled anti-β-catenin antibodies, and observed via in-cell western assay (i.e., as described in Hannoush, R. N. (2008) PLoS One 3, e3498) to assess β-catenin protein levels. The values in Table 7 are averages of at least 3 independent replicates, ±standard deviation.

FZD8 CRD-Fc = target: T2, FZD8 CRD-Fc (Homo sapiens, UniProt Q9H461); test: spot phage ELISA against FZD8 CRD-Fc (off-target); format: binding; details: spot phage ELISA signal against FZD 8 CRD over ELISA signal against BSA; Tables 3 and 4
T2 construct: hFZD8 CRD-Fc (cat no. 6129-FZ); purchased R&D systems 6129-FZ
T2 sequence (Q9H461 30-151 limits assumed): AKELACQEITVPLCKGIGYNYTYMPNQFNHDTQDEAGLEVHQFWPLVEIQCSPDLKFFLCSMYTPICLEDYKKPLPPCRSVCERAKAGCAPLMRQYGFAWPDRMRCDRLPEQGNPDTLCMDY
Protocol: as §1, §2

[4] = […], mWnt3a 50 ng/mL, 6 hours, mean ± standard deviation, read-out: HEK293S-TB IC50
[5] = β-catenin by immunofluorescence, Wnt3a 2.5 nM, 5 hours, mean ± standard deviation

Row | Compound | SIGNAL: NOISE RATIO HERCEPTIN (Herceptin) | IC50 [2, 4] [µM] | HEK293S-TB % Remaining Activity ([2]; mean ± standard deviation) [%] | L CELLS % Remaining Activity ([3]; measured at 100 μM peptide) [%] | IC50 [3, 5] [µM] | other results
1 | 41 (AASDDLEFWCHVMY) [compound 41] | – | – | – | – | – | FZD7 CRD-Fc phage-binding signal (FZD7 CRD-Fc): 3.0; FZD7 CRD-Fc S/N (FZD7 CRD-Fc): 59.6; HERCEPTIN S/W (Herceptin): 0.0; HERCEPTIN S/N (Herceptin): 1.3
2 | Cc1cc(-c2ccc(CC(=O)Nc3ccc(-c4cccnc4)cc3)cc2)ccn1 [C59] | – | – | – | – | – | adverse effects on adjacent intestinal crypts [1]: no significant adverse effects; growth of intestinal neoplasia [1]: prevents the growth
3 | ISLIEAMIALDRVF [Fz7-06] | 1.1 | 10.5 ± 0.56 | 4.70 ± 2.07 | 174.95 | – | L CELLS IC50 (μM) [3, 5]: n. i.
4 | LPSDNLEFWCHVMY [Fz7-21N] | – | – | 5.51 ± 0.13 | – | 0.18 ± 0.12 | IC50 ([2]; read-out: IC50, Wnt3a-stimulated β-catenin signaling): 0.1 µM; L CELLS % Remaining Activity ([3]; measured at 11.11 μM of peptide): 59.77^G ± 6.12%; Wnt3a-mediated stabilization of β-catenin ([3]; mouse L cells): blocked
5 | IWFKGRFVEFSSLV [Fz7-17] | 1.1 | 34.77 ± 0.34 | 4.59 ± 1.30 | 38.20 ± 0.06 | ~35 | –
6 | 40 (AASDDLEFWCHVMY) [compound 40] | – | – | – | – | – | FZD7 CRD-Fc phage-binding signal (FZD7 CRD-Fc): 3.2; FZD7 CRD-Fc S/N (FZD7 CRD-Fc): 60.5; HERCEPTIN S/W (Herceptin): 0.0; HERCEPTIN S/N (Herceptin): 1.4
7 | YEHLHDLMDLIRPW [Fz7-07] | 1.2 | > 100 | 46.04 ± 6.94 | 67.20 ± 10.22 | > 100 | –
8 | FDFCSVMPQFIYCPGD [Fz7-20] | 1.14 | 20.8 ± 1.61 | 9.78 ± 0.53 | 23.68 ± 4.40 | 15.2 ± 10.8 | –
9 | 94 (LPADDLEFWCHVMY) [compound 94] | – | – | – | – | – | FZD7 CRD-Fc phage-binding signal (FZD7 CRD-Fc): 0.1; FZD7 CRD-Fc S/N (FZD7 CRD-Fc): 2.8; HERCEPTIN S/W (Herceptin): 0.0; HERCEPTIN S/N (Herceptin): 1.2
10 | 16 (PCSVICLPDWSSLLFI) [compound 16] | 1.1 | – | – | – | – | SIGNAL: NOISE RATIO FZD7 CRD (FZD7 CRD-Fc): 5.0; SIGNAL: NOISE RATIO FZD8 CRD (FZD8 CRD-Fc): 1.1
11 | SDDXEFWCHVMY [dFz7-21Δ2.L6Hof] | – | – | – | – | – | IC50 compared with dFz7-21 ([2]; text to Table 17): comparable to that of dFz7-21
12 | 15 (FWMQLQDGFAIWFP) [compound 15] | 1.7 | – | – | – | – | SIGNAL: NOISE RATIO FZD8 CRD (FZD8 CRD-Fc): 2.9
13 | 5 (PCSVICLPDWSSLLFI) [compound 5] | 1.0 | – | – | – | – | SIGNAL: NOISE RATIO FZD7 CRD (FZD7 CRD-Fc): 22.7; SIGNAL: NOISE RATIO FZD8 CRD (FZD8 CRD-Fc): 1.5
